Assay results: US11624685B2, “Method and system for imaging and analysis of a biological specimen” (The Board of Trustees of the Leland Stanford Junior …, priority 2016, dated 2023)

Columns and labels:
ArcTRAP mice = experiment: ArcTRAP labeling, background recombination; type: in vivo, mouse; conditions: novel aqueous formulation of 4TM, reduced dosage
Source text: Male ArcTRAP (ArcCreER+/−, Ai14+/−) mice were used for study. 6-7 week old ArcTRAP mice were handled and injected with saline daily for at least 5 days prior to the experiment (including the home cage controls) to minimize the labeling due to handling and injections. The mice were 7-8 weeks old at the time of behavioral labeling. […] The home cage control group remained in their home cage for the whole period. All the chambers were cleaned with 70% ethanol between trials. On experimental day 2, all mice received 5 mg/kg 4TM (IP injection) 3 hours after the behavioral challenge to enable TRAP labeling. All groups, including the home cage controls, received 4-hyroxytamoxifen injections at the same time of the day (2-3 PM). The bedding of all cages were refreshed daily for 48 hours to prevent 4TM retake. All the labeled mice were kept in their home cage for an additional 10 days to allow the full expression of tdTomoto before perfusion.
10 mg of 4TM (Sigma H6278) was first dissolved in 250 μl DMSO. This stock is first diluted in 5 ml of saline containing 2% Tween 80 and then diluted 1:1 again with saline. The final injectable solution contained: 1 mg/ml 4TM, 1% Tween 80 and 2.5% DMSO in saline.

mPFC of Arc-rTag mice = experiment: Activity-dependent ribosome profiling of mPFC (microarray, qPCR); type: in vivo, mouse; conditions: IP fraction, two weeks after labeling
Experimental: Male Arc-rTag mice were trained and labeled with 4TM with the same protocol used in ArcTRAP labeling. After labeling, the mice were returned and kept in their home cage for 14 days to allow full integration of tagged ribosomes.
Immunoaffinity purification of ribosome RNA from mPFC was carried out similarly to a protocol previously described (Sanz et al, Proc Natl Acad Sci USA, 106:13939-13944 (2009)) with minor modifications. For preparation of anti-GFP-conjugated dynabeads, for each sample 50 μl protein G dynabeads (Life Technologies) was first washed with PBST and then incubated with 2 μl anti-GFP antibody (Abcam, ab290) in a total volume of 200 μl PBST. […] RNA samples (all at 100 ng per sample) were processed at the Stanford Protein and Nucleic Acid Biotechnology Facility by one-cycle target preparation, labeling and hybridization to Mouse Gene 2.0 ST Array (Affymetrix), according to the manufacturer's protocol and analyzed by Affymetrix Transcriptiome Analysis Console.
For qPCR analysis, RNA was reverse transcribed using the ABI high capacity cDNA synthesis kit and used in quantitative PCR reactions containing SYBR-green fluorescent dye (ABI). Relative expression of mRNAs was determined after normalization with TBP levels using the ΔΔCt method. […]

Row | Molecule | background recombination in ArcTRAP line (ArcTRAP mice) | Npas4 transcript enrichment in cocaine-activated cells compared to shock-activated cells (mPFC of Arc-rTag mice) [fold]
1 | 4-hydroxytamoxifen [4TM] | eliminate the background recombination | 
2 | COC(=O)[C@H]1[C@@H](OC(=O)c2ccccc2)C[C@@H]2CC[C@H]1N2C [cocaine] |  | 3
